Results taken from patent US20090311237A1, “Combination therapy using a soluble hyaluronidase and a bisphosphonate” (priority 2008, published 2009).
Read-outs that look alike come from different tables or passages of the source.

Test: Pharmacokinetics of ZA in pig serum after IV or SC infusion with or without rHuPH20 (LC-MS-MS, non-compartmental analysis)
Format: in vivo
Conditions: ZA […], rHuPH20 0 U/mL
Experimental: A pharmacokinetic study of zoledronic acid (ZA) co-administered with rHuPH20 in female Yorkshire swines was conducted. The primary objective of the study was to determine the bioavailability of zoledronic acid dosed via subcutaneous (SC) co-administration with human recombinant hyaluronidase PH20 (rHuPH20) and to compare the overall exposure to an equivalent IV dose.
Animals in Study Group 1 were dosed with 0.15 mg/kg ZA given via a 20-minute IV infusion. Animals in Study Groups 2 and 3 were dosed subcutaneously (SC) with 0.15 mg/kg ZA without and with rHuPH20, respectively, in different SC delivery volumes.
Following ZA dose administration, serial blood samples were collected via vascular access ports (VAPs) for serum preparation and determination of ZA concentrations. Blood collection times were at 1, 3, 5, 10, 15, 20, 30, 45, and 60 minutes, and at 1.5, 2, 3, 4, 6, 8, 10, 24, 48, and 72 hours post dose. Urine samples were also collected to compare excretion characteristics between IV and SC routes of administration. Collection times for urine were at 15 minutes before dosing (−15 min.), continuously from dose initiation to 2 hours post dose, and at 4, 6, 8, and 24 hours post dose thereafter.
Serum concentration of ZA was determined using a qualified LC-MS-MS assay after derivatization with diazomethane (Zhu, L S et al. (2006) Rapid Commun. Mass Spectrom. 20: 3421-3426; “Qualification Data of An LC-MS/MS Method for the Determination of Zoledronate in Porcine Serum”, MDS Pharma Services Study No. AA43671-01, Report Date 14 Sep. 2007). The assay range was from 2.0 to 400 ng/mL with a lower limit of quantitation (LLOQ) at 2.0 ng/mL. Urine concentration of ZA was determined by a similar well qualified LC-MS-MS method (“Qualification Data of An LC-MS/MS Method for the Determination of Zoledronate in Porcine Urine”, MDS Pharma Services Study No. AA43671-02, Report Date 14 Sep. 2007) with an assay LLOQ at 10 ng/mL.
Pharmacokinetic (PK) analyses of ZA serum concentration versus time data were conducted using WinNonlin v5.1 (Pharsight, Mountain View, Calif.). Non-compartmental analysis was used for derivation of primary and secondary pharmacokinetic (PK) parameters. AUC, Cmax, and Tmax were compared between dose routes, between co-administration with rHuPH20, and with dose of rHuPH20.

[1] = female, Yorkshire, pig, serum, intravenous, […], animal ID 57, Study Group 1, IV 20 min infusion, read-out: Zoledronic Acid Serum Concentration
[2] = female, Yorkshire, pig, serum, intravenous, […], animal ID 61, Study Group 1, IV 20 min infusion, read-out: Zoledronic Acid Serum Concentration

With `O=P(O)(O)C(O)(Cn1ccnc1)P(=O)(O)O` [ZA, 1-hydroxy-2-(1H-imidazol-1-yl)ethylidene-1,1-bisphosphonic acid] the “Zoledronic Acid Serum Concentration” value (Time 6 h, pig ID 59, Study Group 2, SC, 100 mL, 16 min) was “BLQ (BLQ = below assay limit of quantification (2.0 ng/mL))”, the “Zoledronic Acid Serum Concentration” value (Time 8 h, pig ID 59, Study Group 2, SC, 100 mL, 16 min) was “BLQ (BLQ = below assay limit of quantification (2.0 ng/mL))” and the “Zoledronic Acid Serum Concentration” value (Time 8 h, pig ID 60, Study Group 2, SC, 100 mL, 16 min) was “BLQ (BLQ = below assay limit of quantification (2.0 ng/mL))”. For the same compound, the “Zoledronic Acid Serum Concentration” value (Time 8 h, pig ID 62, Study Group 2, SC, 50 mL, 8 min) was “BLQ (BLQ = below assay limit of quantification (2.0 ng/mL))”, the “Zoledronic Acid Serum Concentration” value (Time 8 h, pig ID 69, Study Group 2, SC, 25 mL, 4 min) was “BLQ (BLQ = below assay limit of quantification (2.0 ng/mL))” and the “Zoledronic Acid Serum Concentration” value (Time 10 h, pig ID 59, Study Group 2, SC, 100 mL, 16 min) was “BLQ (BLQ = below assay limit of quantification (2.0 ng/mL))”. The “Zoledronic Acid Serum Concentration” value (Time 10 h, pig ID 60, Study Group 2, SC, 100 mL, 16 min) was “BLQ (BLQ = below assay limit of quantification (2.0 ng/mL))”, the “Zoledronic Acid Serum Concentration” value (Time 10 h, pig ID 62, Study Group 2, SC, 50 mL, 8 min) was “BLQ (BLQ = below assay limit of quantification (2.0 ng/mL))” and the “Zoledronic Acid Serum Concentration” value (Time 10 h, pig ID 69, Study Group 2, SC, 25 mL, 4 min) was “BLQ (BLQ = below assay limit of quantification (2.0 ng/mL))”. The “Zoledronic Acid Serum Concentration” value (Time 10 h, pig ID 70, Study Group 2, SC, 10 mL, 1.6 min) was “BLQ (BLQ = below assay limit of quantification (2.0 ng/mL))”, the “Zoledronic Acid Serum Concentration” value (Time 24 h, pig ID 59, Study Group 2, SC, 100 mL, 16 min) was “BLQ (BLQ = below assay limit of quantification (2.0 ng/mL))” and the “Zoledronic Acid Serum Concentration” value (Time 24 h, pig ID 60, Study Group 2, SC, 100 mL, 16 min) was “BLQ (BLQ = below assay limit of quantification (2.0 ng/mL))”. The “Zoledronic Acid Serum Concentration” value (Time 24 h, pig ID 62, Study Group 2, SC, 50 mL, 8 min) was “BLQ (BLQ = below assay limit of quantification (2.0 ng/mL))”, the “Zoledronic Acid Serum Concentration” value (Time 24 h, pig ID 69, Study Group 2, SC, 25 mL, 4 min) was “BLQ (BLQ = below assay limit of quantification (2.0 ng/mL))” and the “Zoledronic Acid Serum Concentration” value (Time 24 h, pig ID 70, Study Group 2, SC, 10 mL, 1.6 min) was “BLQ (BLQ = below assay limit of quantification (2.0 ng/mL))”. For the same compound, the “Zoledronic Acid Serum Concentration” value (Time 48 h, pig ID 59, Study Group 2, SC, 100 mL, 16 min) was “BLQ (BLQ = below assay limit of quantification (2.0 ng/mL))”, the “Zoledronic Acid Serum Concentration” value (Time 48 h, pig ID 60, Study Group 2, SC, 100 mL, 16 min) was “BLQ (BLQ = below assay limit of quantification (2.0 ng/mL))” and the “Zoledronic Acid Serum Concentration” value (Time 48 h, pig ID 62, Study Group 2, SC, 50 mL, 8 min) was “BLQ (BLQ = below assay limit of quantification (2.0 ng/mL))”. The “Zoledronic Acid Serum Concentration” value (Time 48 h, pig ID 69, Study Group 2, SC, 25 mL, 4 min) was “BLQ (BLQ = below assay limit of quantification (2.0 ng/mL))”, the “Zoledronic Acid Serum Concentration” value (Time 48 h, pig ID 70, Study Group 2, SC, 10 mL, 1.6 min) was “BLQ (BLQ = below assay limit of quantification (2.0 ng/mL))” and the “Zoledronic Acid Serum Concentration” value (Time 72 h, pig ID 59, Study Group 2, SC, 100 mL, 16 min) was “BLQ (BLQ = below assay limit of quantification (2.0 ng/mL))”. The “Zoledronic Acid Serum Concentration” value (Time 72 h, pig ID 60, Study Group 2, SC, 100 mL, 16 min) was “BLQ (BLQ = below assay limit of quantification (2.0 ng/mL))”, the “Zoledronic Acid Serum Concentration” value (Time 72 h, pig ID 62, Study Group 2, SC, 50 mL, 8 min) was “BLQ (BLQ = below assay limit of quantification (2.0 ng/mL))” and the “Zoledronic Acid Serum Concentration” value (Time 72 h, pig ID 69, Study Group 2, SC, 25 mL, 4 min) was “BLQ (BLQ = below assay limit of quantification (2.0 ng/mL))”. The “Zoledronic Acid Serum Concentration” value (Time 72 h, pig ID 70, Study Group 2, SC, 10 mL, 1.6 min) was “BLQ (BLQ = below assay limit of quantification (2.0 ng/mL))”, the “Zoledronic Acid Serum Concentration” value (Time […], pig ID 60, Study Group 2, SC, 100 mL, 16 min) was “BLQ (BLQ = below assay limit of quantification (2.0 ng/mL))” and the “Zoledronic Acid Serum Concentration” value (Time […], pig ID 62, Study Group 2, SC, 50 mL, 8 min) was “BLQ (BLQ = below assay limit of quantification (2.0 ng/mL))”. For the same compound, the “Zoledronic Acid Serum Concentration” value (Time […], pig ID 69, Study Group 2, SC, 25 mL, 4 min) was “BLQ (BLQ = below assay limit of quantification (2.0 ng/mL))”, the “Zoledronic Acid Serum Concentration” value (Time […], pig ID 70, Study Group 2, SC, 10 mL, 1.6 min) was “BLQ (BLQ = below assay limit of quantification (2.0 ng/mL))” and the “Zoledronic Acid Serum Concentration” value (animal ID 57, Study Group 1, IV 20 min infusion, time 6 h) was “BLQ^a (BLQ = below assay limit of quantification (2.0 ng/mL))”. For the same compound, the “Zoledronic Acid Serum Concentration” value (animal ID 57, Study Group 1, IV 20 min infusion, time 8 h) was “BLQ (BLQ = below assay limit of quantification (2.0 ng/mL))”, the “Zoledronic Acid Serum Concentration” value (animal ID 57, Study Group 1, IV 20 min infusion, time 10 h) was “BLQ (BLQ = below assay limit of quantification (2.0 ng/mL))” and the “Zoledronic Acid Serum Concentration” value (animal ID 57, Study Group 1, IV 20 min infusion, time 24 h) was “BLQ (BLQ = below assay limit of quantification (2.0 ng/mL))”. The “Zoledronic Acid Serum Concentration” value (animal ID 57, Study Group 1, IV 20 min infusion, time 48 h) was “BLQ (BLQ = below assay limit of quantification (2.0 ng/mL))”, the “Zoledronic Acid Serum Concentration” value (animal ID 57, Study Group 1, IV 20 min infusion, time 72 h) was “BLQ (BLQ = below assay limit of quantification (2.0 ng/mL))” and the “Zoledronic Acid Serum Concentration” value (animal ID 57, Study Group 1, IV 20 min infusion, time […]) was “BLQ (BLQ = below assay limit of quantification (2.0 ng/mL))”. The “Zoledronic Acid Serum Concentration” value (animal ID 61, Study Group 1, IV 20 min infusion, time 6 h) was “BLQ (BLQ = below assay limit of quantification (2.0 ng/mL))”, the “Zoledronic Acid Serum Concentration” value (animal ID 61, Study Group 1, IV 20 min infusion, time 8 h) was “BLQ (BLQ = below assay limit of quantification (2.0 ng/mL))” and the “Zoledronic Acid Serum Concentration” value (animal ID 61, Study Group 1, IV 20 min infusion, time 10 h) was “BLQ (BLQ = below assay limit of quantification (2.0 ng/mL))”. The “Zoledronic Acid Serum Concentration” value (animal ID 61, Study Group 1, IV 20 min infusion, time 24 h) was “BLQ (BLQ = below assay limit of quantification (2.0 ng/mL))”, the “Zoledronic Acid Serum Concentration” value (animal ID 61, Study Group 1, IV 20 min infusion, time 48 h) was “BLQ (BLQ = below assay limit of quantification (2.0 ng/mL))” and the “Zoledronic Acid Serum Concentration” value (animal ID 61, Study Group 1, IV 20 min infusion, time 72 h) was “BLQ (BLQ = below assay limit of quantification (2.0 ng/mL))”. The “Zoledronic Acid Serum Concentration” value (animal ID 61, Study Group 1, IV 20 min infusion, time […]) was “BLQ (BLQ = below assay limit of quantification (2.0 ng/mL))”, the “Zoledronic Acid Serum Concentration” value (animal ID 67, Study Group 1, IV 20 min infusion, time 6 h) was “BLQ (BLQ = below assay limit of quantification (2.0 ng/mL))” and the “Zoledronic Acid Serum Concentration” value (animal ID 67, Study Group 1, IV 20 min infusion, time 8 h) was “BLQ (BLQ = below assay limit of quantification (2.0 ng/mL))”. For the same compound, the “Zoledronic Acid Serum Concentration” value (animal ID 67, Study Group 1, IV 20 min infusion, time 10 h) was “BLQ (BLQ = below assay limit of quantification (2.0 ng/mL))”, the “Zoledronic Acid Serum Concentration” value (animal ID 67, Study Group 1, IV 20 min infusion, time 24 h) was “BLQ (BLQ = below assay limit of quantification (2.0 ng/mL))” and the “Zoledronic Acid Serum Concentration” value (animal ID 67, Study Group 1, IV 20 min infusion, time 48 h) was “BLQ (BLQ = below assay limit of quantification (2.0 ng/mL))”. The “Zoledronic Acid Serum Concentration” value (animal ID 67, Study Group 1, IV 20 min infusion, time 72 h) was “BLQ (BLQ = below assay limit of quantification (2.0 ng/mL))”, the “Zoledronic Acid Serum Concentration” value (animal ID 67, Study Group 1, IV 20 min infusion, time […]) was “BLQ (BLQ = below assay limit of quantification (2.0 ng/mL))” and the concentration at 0.016 h [1] was 255 ng/mL. The concentration at 0.05 h [1] was 446 ng/mL, the concentration at 0.333 h [1] was 388 ng/mL and the concentration at 0.5 h (female, Yorkshire, pig, serum, intravenous, […], animal ID 57, Study Group 1, IV 20 min infusion, time 0.50 h, read-out: Zoledronic Acid Serum Concentration) was 244 ng/mL. It also gave a concentration at 1 h (female, Yorkshire, pig, serum, intravenous, […], animal ID 57, Study Group 1, IV 20 min infusion, time 1.00 h, read-out: Zoledronic Acid Serum Concentration) of 71.4 ng/mL, a concentration at 2 h (female, Yorkshire, pig, serum, intravenous, […], animal ID 57, Study Group 1, IV 20 min infusion, time 2 h, read-out: Zoledronic Acid Serum Concentration) of 15.4 ng/mL and a concentration at 3 h (female, Yorkshire, pig, serum, intravenous, […], animal ID 57, Study Group 1, IV 20 min infusion, time 3 h, read-out: Zoledronic Acid Serum Concentration) of 5.8 ng/mL. For the same compound, the concentration at 4 h (female, Yorkshire, pig, serum, intravenous, […], animal ID 57, Study Group 1, IV 20 min infusion, time 4 h, read-out: Zoledronic Acid Serum Concentration) was 2.8 ng/mL, the concentration at 0.016 h [2] was 254 ng/mL and the concentration at 0.05 h [2] was 196 ng/mL. It also gave a concentration at 0.333 h [2] of 596 ng/mL, a concentration at 0.5 h (female, Yorkshire, pig, serum, intravenous, […], animal ID 61, Study Group 1, IV 20 min infusion, time 0.5 h, read-out: Zoledronic Acid Serum Concentration) of 299 ng/mL and a concentration at 1 h (female, Yorkshire, pig, serum, intravenous, […], animal ID 61, Study Group 1, IV 20 min infusion, time 1 h, read-out: Zoledronic Acid Serum Concentration) of 85.5 ng/mL.
